Read-outs that look alike come from different tables or passages of the source. One block for each molecule: values may come before it.
Key:
SPC-A1 = experiment: Growth inhibition, modified MTT assay, SPC-A1; format: cell-based; conditions: SPCA1, mean of 3 independent tests
Method: (§1) The growth inhibition was evaluated by the modified MTT assay. Briefly, the cells were seeded at 1×10^4 cells/well in 96-well plates (Falcon, Calif., USA), and incubated for 24 h in […] culture media with 10% FCS. The media were then replaced by serum-free medium. After 24 h, the media were placed in triplicate with grade concentrations of compounds. As controls, the cells were cultivated in DMEM/F12 only. The cells were then treated by MTT (Sigma, USA) assay, […] (5 g/L) for 4 h. After the removal of the supernatant, the purple-blue sediment was dissolved in 100 μL/well DMSO, and the optical densities were read on the multi-well scanning spectrophotometer (Labsystems Dragon, Finland) at 492 nm (A492). The growth inhibition rate (GIR) of the treated cells was calculated using Equation: GIR(%)={1−[A490/A490(control)]}×100% The results were also converted to IC50 (the compound concentration required for 50% growth inhibition of tumor cells), which were calculated by using the sigmoidal fitting model by the Origin 7.0 software (OriginLab, Northampton, Mass., USA). The mean IC50 was determined from the results of 3 independent tests.

T24 = experiment: Growth inhibition, modified MTT assay, T24; format: cell-based; conditions: Homo sapiens, T-24, mean of 3 independent tests
Method: as §1

HepG2 = experiment: Growth inhibition, modified MTT assay, HepG2; format: cell-based; conditions: Homo sapiens, mean of 3 independent tests
Method: as §1

MCF-7 = experiment: Growth inhibition, modified MTT assay, MCF-7; format: cell-based; conditions: Homo sapiens, MCF7; MCF-7, MTT, mean of 3 independent tests
Method: as §1

PPAR-γ = biological target: T1, PPAR-γ (Homo sapiens, UniProt P37231); experiment: Transient transfection and transcription assay (luciferase reporter, U2OS cells); format: cell-based; conditions: 24 h treatment
T1 construct: expressed in transfected cells; host or cells: U2OS cells, transiently transfected with pcDNA3.1 expression vectors (FuGene6)
T1 sequence (P37231 1-505): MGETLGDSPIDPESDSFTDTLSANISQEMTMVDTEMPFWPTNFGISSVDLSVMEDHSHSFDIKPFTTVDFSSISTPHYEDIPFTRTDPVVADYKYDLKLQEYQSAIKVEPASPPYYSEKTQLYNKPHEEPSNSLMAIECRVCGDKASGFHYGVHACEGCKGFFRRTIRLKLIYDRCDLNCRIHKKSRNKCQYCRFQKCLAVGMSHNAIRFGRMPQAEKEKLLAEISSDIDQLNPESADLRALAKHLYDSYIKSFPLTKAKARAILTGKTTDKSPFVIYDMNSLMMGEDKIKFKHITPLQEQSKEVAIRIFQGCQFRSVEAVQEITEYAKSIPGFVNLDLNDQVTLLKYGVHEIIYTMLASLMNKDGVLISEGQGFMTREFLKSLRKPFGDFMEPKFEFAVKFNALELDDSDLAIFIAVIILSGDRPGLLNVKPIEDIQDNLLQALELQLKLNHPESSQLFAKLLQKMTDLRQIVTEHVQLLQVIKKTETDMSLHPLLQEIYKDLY
T1 sequence (P19793 1-462 partner): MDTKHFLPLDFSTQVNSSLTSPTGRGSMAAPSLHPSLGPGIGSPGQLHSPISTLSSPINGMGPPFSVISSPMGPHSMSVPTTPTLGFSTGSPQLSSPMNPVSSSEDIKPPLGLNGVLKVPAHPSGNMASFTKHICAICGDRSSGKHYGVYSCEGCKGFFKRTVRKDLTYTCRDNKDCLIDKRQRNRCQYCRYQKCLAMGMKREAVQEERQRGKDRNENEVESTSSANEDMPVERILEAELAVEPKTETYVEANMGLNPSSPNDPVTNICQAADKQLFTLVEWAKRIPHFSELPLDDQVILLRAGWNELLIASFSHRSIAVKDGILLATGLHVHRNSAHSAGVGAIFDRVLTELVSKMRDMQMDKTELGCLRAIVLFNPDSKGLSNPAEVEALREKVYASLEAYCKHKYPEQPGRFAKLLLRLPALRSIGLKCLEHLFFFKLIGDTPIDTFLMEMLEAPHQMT
Method: cDNAs for Human RXR, PPAR were obtained by RTPCR from the human liver or adipose tissues. Amplified cDNAs were cloned into pcDNA3.1 expression vector and the inserts were confirmed by sequencing. U2OS cells were cultured in McCoy's 5A with 10% heat-inactivated fetal bovine serum in a humidified 5% CO2 atmosphere at 37° C. Cells were seeded in 96-well plates the day before transfection to give a confluence of 50-80% at transfection. A total of 60 ng of DNA containing 10 ng of hRXR, 10 ng of pCMV Gal, 10 ng of nuclear receptor expression vectors and 30 ng of the corresponding reporters were cotransfected per well using FuGene6 transfection reagent according to the manufacturer's instructions. […] The final concentration of DMSO in culture medium was 0.1%. […] Luciferase activity was monitored using the luciferase assay kit according to the manufacturers instructions. Light emission was read in a Labsystems Ascent Fluoroskan reader. To measure galactosidase activity to normalize the luciferase data, 50 IL of supernatant from each transfection lysate was transferred to a new microplate. Galactosidase assays were performed in the microwell plates using a kit from Promega and read in a microplate reader. Compounds were tested in five concentrations ranging from 0.01 to 10 μM. […] The results were expressed as means (SD).

[1] = test system: Han:SPRD rat model of ADPKD; format: in vivo; conditions: for 24-hour urine protein level / Blood urea nitrogen (BUN) levels: Treatment Group 10 mg/kg.d
Text: Han: SPRD rats were obtained from our own breeding colony that is derived from animals that were kindly provided to us by Mayo Clinic (Rochester Minn.), All animal procedures and care were taken at the SPF-level Laboratory Animal Center of the Second Military Medical University (Shanghai, […].). Carboxymethyl cellulose sodium (CMC-Na) was purchased from Shanghai Chemical Reagent Company. Automatic clinical chemistry analyzer (Hitachi Clinical Analyzer 7080).
2.1 Experimental protocol: A total of 48 Han:SPRD rats (about ⅔ rats were Cy/+, ⅓ were +/+, homozygote rats −/− die within 3 weeks), all at 3 weeks of age, were randomized into 2 groups: negative control group and treatment groups (10 mg/kg.d compound 2). The rats of negative control group were given 1% CMC-Na, while the rats of treatment group were given 10 mg/kg.d compound 2 (suspended in 1% CMC-Na) by daily gavage from 3 weeks through 11 weeks of age, removal +/+ rats in both groups, then general animal feeds were given to rats in control group, the rats of treatment group were given animal feeds added by 0.03% of compound 2 (approximately 10 mg/kg. d), both groups were maintained with free access to water. Long-term observation of the rats until they died, record the length of their life span. 2.2 Physiological and biochemical indexes: since the day of treatment, general state and body weight of rats were examined and recorded every month, Blood (2 ml) was obtained from the rat orbital venous plexus using a glass capillary tube, then centrifuged for 10 minutes at 4000 rpm to collect serum for biochemical analysis including blood urea nitrogen (BUN), ALT, AST, serum lipids et. Urine was collected using Metabolic Cage for 24-hour urine protein analysis. 3.

[2] = after 2 months of treatment, P<0.001

Structure (SMILES): CC(Cc1ccc(Oc2cc(N3CCN(Cc4ccc(F)cc4)CC3)nc(N)n2)cc1)(Oc1ccccc1)C(=O)O (centres unmarked) [Compound 7, 3-{4-{2-Amino-6-[4-(4-fluoro-benzyl)-piperazin-1-yl]-pyrimidin-4-yloxy}-phenyl}-2-methyl-2-phenoxy-propionic acid]
IC50 (SPC-A1): > 50 µM | IC50 (T24): > 50 µM | IC50 (HepG2): > 50 µM | IC50 (MCF-7): > 50 µM | melting point: 107 to 109 °C

Structure (SMILES): CC(Cc1ccc(Oc2cc(N3CCN(Cc4ccccc4)CC3)nc(N)n2)cc1)(Oc1ccccc1)C(=O)O (racemic) [Compound 2, rac-3-{4-[2-Amino-6-(4-benzyl-piperazin-1-yl)-pyrimidin-4-yloxy]-phenyl}-2-methyl-2-phenoxy-propionic acid]
EC50 (PPAR-γ): 6.76 µM | 24-hour urine protein level ([1]; 1 month): 62.3 ± 6.3 mg/24 h | Blood urea nitrogen (BUN) levels ([1]; 1 month): 11.55 ± 0.57 mmol/L | 24-hour urine protein level ([1]; 2 month): 64.1 ± 5.0 mg/24 h | Blood urea nitrogen (BUN) levels ([1]; 2 month): 12.36 ± 0.77 mmol/L | 24-hour urine protein level ([1]; 3 month): 67.1 ± 4.9 mg/24 h | Blood urea nitrogen (BUN) levels ([1]; 3 month): 12.58 ± 1.35 mmol/L | 24-hour urine protein level ([1]; 4 month): 66.3 ± 4.6 mg/24 h | Blood urea nitrogen (BUN) levels ([1]; 4 month): 12.79 ± 1.41 mmol/L | 24-hour urine protein level ([1]; 5 month): 67.1 ± 3.6 mg/24 h | Blood urea nitrogen (BUN) levels ([1]; 5 month): 13.10 ± 1.64 mmol/L | 24-hour urine protein level ([1]; 6 month): 66.0 ± 8.6 mg/24 h | Blood urea nitrogen (BUN) levels ([1]; 6 month): 13.26 ± 1.05 mmol/L | 24-hour urine protein level ([1]; 7 month): 64.4 ± 2.8 mg/24 h | Blood urea nitrogen (BUN) levels ([1]; 7 month): 12.60 ± 1.40 mmol/L | 24-hour urine protein level ([1]; 8 month): 70.4 ± 8.8 mg/24 h | Blood urea nitrogen (BUN) levels ([1]; 8 month): 13.16 ± 1.73 mmol/L | 24-hour urine protein level ([1]; 9 month): 67.8 ± 3.2 mg/24 h | Blood urea nitrogen (BUN) levels ([1]; 9 month): 12.87 ± 2.72 mmol/L | 24-hour urine protein level ([1]; 10 month): 70.0 ± 5.9 mg/24 h | Blood urea nitrogen (BUN) levels ([1]; 10 month): 13.17 ± 3.70 mmol/L | 24-hour urine protein level ([1]; baseline): Non-detected | Blood urea nitrogen (BUN) levels ([1]; baseline): 4.97 ± 0.67 mmol/L | average 24-hour urine protein level compared with the negative control group [1, 2]: lower | average BUN level compared with control group [1, 2]: lower | life span of Han:SPRD rats ([1]; at suitable dose, FIG. 1): prolong the life span | change in body weight ([1]; rat, in vivo): no statistically significant change | poisonous and side effects ([1]; rat, in vivo): without any obvious poisonous and side effects | serum ALT ([1]; rat, in vivo): within the normal range | serum AST ([1]; rat, in vivo): within the normal range | serum lipids ([1]; rat, in vivo): within the normal range | average survival time ([1]; treatment group, long-term, 2 rats still alive): ≥ 451.1 days | IC50 (SPC-A1): 65.5 µM | IC50 (T24): 72 µM | IC50 (HepG2): 80.6 µM | IC50 (MCF-7): 55 µM

Structure (SMILES): CC(Cc1ccc(Oc2cc(N3CCN(Cc4ccc(Cl)cc4)CC3)nc(N)n2)cc1)(Oc1ccccc1)C(=O)O (centres unmarked) [Compound 13, 3-{4-{2-Amino-6-[4-(4-chloro-benzyl)-piperazin-1-yl]-pyrimidin-4-yloxy}-phenyl}-2-methyl-2-phenoxy-propionic acid]
IC50 (SPC-A1): > 50 µM | IC50 (T24): 45.6 µM | IC50 (HepG2): > 50 µM | IC50 (MCF-7): 48.9 µM | melting point: 103 to 105 °C

Structure (SMILES): CC(Cc1ccc(Oc2cc(N3CCN(c4ncccn4)CC3)nc(N)n2)cc1)(Oc1ccccc1)C(=O)O (centres unmarked) [Compound 20, 3-{4-[2-Amino-6-(4-pyrimidin-2-yl-piperazin-1-yl)-pyrimidin-4-yloxy]-phenyl}-2-methyl-2-phenoxy-propionic acid]
EC50 (PPAR-γ): 5.89 µM | IC50 (SPC-A1): 29.1 µM | IC50 (T24): 20.1 µM | IC50 (HepG2): 32.6 µM | IC50 (MCF-7): 35.7 µM

Continued by falling IC50 (T24), values first:

EC50 (PPAR-γ): 3.89 µM | IC50 (T24): 40.6 µM | IC50 (HepG2): > 50 µM | IC50 (MCF-7): 47.6 µM
Structure (SMILES): CC(Cc1ccc(Oc2cc(N3CCN(Cc4ccco4)CC3)nc(N)n2)cc1)(Oc1ccccc1)C(=O)O (centres unmarked) [Compound 37, 3-{4-[2-Amino-6-(4-furan-2-ylmethyl-piperazin-1-yl)-pyrimidin-4-yloxy]phenyl}-2-methyl-2-phenoxy-propionic acid]
IC50 (SPC-A1): 37.6 µM

EC50 (PPAR-γ): 2.57 µM | IC50 (T24): 40 µM | IC50 (HepG2): > 50 µM | IC50 (MCF-7): > 50 µM
Structure (SMILES): CC(Cc1ccc(Oc2cc(N3CCN(Cc4ccccc4)CC3)nc(N)n2)cc1)(Oc1ccc(-c2ccccc2)cc1)C(=O)O (centres unmarked) [Compound 29, 3-{4-[2-Amino-6-(4-benzyl-piperazin-1-yl)-pyrimidin-4-yloxy]-phenyl}-2-(biphenyl-4-yloxy)-2-methyl-propionic acid]
IC50 (SPC-A1): 34.1 µM

IC50 (T24): 36.2 µM | IC50 (HepG2): > 50 µM | IC50 (MCF-7): 28.5 µM | melting point: 114 to 115 °C
Structure (SMILES): CC(Cc1ccc(Oc2cc(N3CCN(Cc4ccc(C(F)(F)F)cc4)CC3)nc(N)n2)cc1)(Oc1ccccc1)C(=O)O (centres unmarked) [Compound 8, 3-{4-{2-Amino-6-[4-(4-trifluoromethyl-benzyl)-piperazin-1-yl]-pyrimidin-4-yloxy}-phenyl}-2-methyl-2-phenoxy-propionic acid]
IC50 (SPC-A1): 42.5 µM

EC50 (PPAR-γ): 4.27 µM | IC50 (T24): 29.1 µM | IC50 (HepG2): 38.1 µM | IC50 (MCF-7): 15.1 µM
Structure (SMILES): CC(Cc1ccc(Oc2cc(N3CCN(Cc4cccc(C(F)(F)F)c4)CC3)nc(N)n2)cc1)(Oc1ccccc1)C(=O)O (centres unmarked) [Compound 10, 3-{4-{2-Amino-6-[4-(3-trifluoromethyl-benzyl)-piperazin-1-yl]-pyrimidin-4-yloxy}-phenyl}-2-methyl-2-phenoxy-propionic acid]
IC50 (SPC-A1): 25.1 µM
